For this data set, the system named is Hepatotoxicity. In words: Literature-mined public compounds from Greene et al multi-species hepatotoxicity modelling dataset.

For `Nc1nc(Cl)nc2c1ncn2[C@H]1C[C@H](O)[C@@H](CO)O1` [CLADRIBINE], the Hepatotoxicity result was “NE: No evidence of hepatotoxicity in any species”.
Under `NCCCCCC(=O)O` [AMINOCAPROIC ACID] stands “NE: No evidence of hepatotoxicity in any species”; under `CC(C)(CO)[C@@H](O)C(=O)NCCC(=O)[O-].CC(C)(CO)[C@@H](O)C(=O)NCCC(=O)[O-].[Ca+2]` [CALCIUM PANTOTHENATE], “NE: No evidence of hepatotoxicity in any species”; under `Nc1ncnc2c1ncn2[C@@H]1O[C@H](CO)[C@@H](O)[C@@H]1O` [VIDARABINE], “NE: No evidence of hepatotoxicity in any species”.
`O=C(O)c1cc(-c2ccc(F)cc2F)ccc1O` [DIFLUNISAL]: the Hepatotoxicity result was “HH: Evidence of human hepatotoxicity”.
DICHROMATE: the Hepatotoxicity entry is “AH: Evidence for animal hepatotoxicity but not tested in humans”.
The value for `CCCCc1ncc(/C=C(\Cc2cccs2)C(=O)O)n1Cc1ccc(C(=O)O)cc1` [EPROSARTAN] was “WE: Weak evidence (<10 case reports) of human hepatotoxicity”.
For the molecule `CCCNC(=O)NS(=O)(=O)c1ccc(Cl)cc1` [CHLORPROPAMIDE], the Hepatotoxicity entry is recorded as “HH: Evidence of human hepatotoxicity”.
Under `CC(=O)O[C@]1(C(C)=O)CC[C@H]2[C@@H]3C[C@H](C)C4=CC(=O)CC[C@]4(C)[C@H]3CC[C@@]21C` [MEDROXYPROGESTERONE ACETATE] stands “WE: Weak evidence (<10 case reports) of human hepatotoxicity”; under `CN1C[C@H](C(=O)N[C@]2(C)O[C@@]3(O)[C@@H]4CCCN4C(=O)[C@H](Cc4ccccc4)N3C2=O)C=C2c3cccc4[nH]cc(c34)C[C@H]21.CN1C[C@H](C(=O)N[C@]2(C)O[C@@]3(O)[C@@H]4CCCN4C(=O)[C@H](Cc4ccccc4)N3C2=O)C=C2c3cccc4[nH]cc(c34)C[C@H]21.O=C(O)C(O)C(O)C(=O)O` [ERGOTAMINE TARTRATE], “NE: No evidence of hepatotoxicity in any species”.
On to `Clc1ccccc1CN1CCc2sccc2C1` [TICLOPIDINE], for which the Hepatotoxicity result was “HH: Evidence of human hepatotoxicity”.
On to `Cc1ccc(C(=O)c2cc(O)c(O)c([N+](=O)[O-])c2)cc1` [TOLCAPONE], for which the Hepatotoxicity entry is “HH: Evidence of human hepatotoxicity”.
Under `Cc1c(C)c2c(c(C)c1O)CCC(C)(COc1ccc(CC3SC(=O)NC3=O)cc1)O2` (stereo unspecified) [TROGLITAZONE] stands “HH: Evidence of human hepatotoxicity”; under `C[C@]12CC[C@@H]3c4ccc(O)cc4CC[C@H]3[C@@H]1CCC2=O` [ESTRONE], “HH: Evidence of human hepatotoxicity”.
Regarding `Cc1ccc(C(=O)c2ccc(CC(=O)O)n2C)cc1` [TOLMETIN], the Hepatotoxicity result is on record as “HH: Evidence of human hepatotoxicity”.
Take `CC[C@@H]1C(=O)OC[C@@H]1Cc1cncn1C` [PILOCARPINE]: the Hepatotoxicity entry is “NE: No evidence of hepatotoxicity in any species”.
In the case of `CN1CCN(CCCN2c3ccccc3Sc3ccc(C(F)(F)F)cc32)CC1` [TRIFLUOPERAZINE], the Hepatotoxicity entry is recorded as “HH: Evidence of human hepatotoxicity”.
Turning to `CCOC(=O)[C@H](CCc1ccccc1)N[C@H]1CCc2ccccc2N(CC(=O)O)C1=O` [BENAZEPRIL], the Hepatotoxicity entry is given as “WE: Weak evidence (<10 case reports) of human hepatotoxicity”.
On to `Cl.Cl.O=C1c2c(O)ccc(O)c2C(=O)c2c(NCCNCCO)ccc(NCCNCCO)c21` [MITOXANTRONE HYDROCHLORIDE], for which the Hepatotoxicity entry is given as “HH: Evidence of human hepatotoxicity”.
Turning to `CC[C@@H](CO)NC(=O)[C@@H]1C=C2c3cccc4c3c(cn4C)C[C@H]2N(C)C1.O=C(O)/C=C\C(=O)O` [METHYSERGIDE MALEATE], the Hepatotoxicity entry was “NE: No evidence of hepatotoxicity in any species”.
Turning to `CCOC(=O)C1(c2ccccc2)CCN(CCC(C#N)(c2ccccc2)c2ccccc2)CC1.Cl` [DIPHENOXYLATE HYDROCHLORIDE], the Hepatotoxicity result was “NE: No evidence of hepatotoxicity in any species”.
For `CC(=O)O[C@]1(C(C)=O)CC[C@H]2[C@@H]3C=C(Cl)C4=CC(=O)[C@@H]5C[C@@H]5[C@]4(C)[C@H]3CC[C@@]21C` [CYPROTERONE ACETATE], the Hepatotoxicity entry is recorded as “AH: Evidence for animal hepatotoxicity but not tested in humans”.
With `CCc1oc2ccccc2c1C(=O)c1cc(Br)c(O)c(Br)c1` [BENZBROMARONE], the Hepatotoxicity result is on record as “HH: Evidence of human hepatotoxicity”.
As to `CC(=O)OCC1=C(C(=O)[O-])N2C(=O)[C@@H](NC(=O)CSc3ccncc3)[C@H]2SC1.[Na+]` [CEPHAPIRIN SODIUM], the Hepatotoxicity result was “NE: No evidence of hepatotoxicity in any species”.
As for `O=P1(N(CCCl)CCCl)NCCCO1` (stereo unspecified) [CYCLOPHOSPHAMIDE ANHYDROUS], the Hepatotoxicity result is listed as “HH: Evidence of human hepatotoxicity”.
Turning to `NN` [HYDRAZINE], the Hepatotoxicity result is “AH: Evidence for animal hepatotoxicity but not tested in humans”.
Take `C#C[C@]1(O)CC[C@H]2[C@@H]3CCc4cc(O)ccc4[C@H]3CC[C@@]21C` [ETHINYL ESTRADIOL]: the Hepatotoxicity entry is “HH: Evidence of human hepatotoxicity”.
As for `Nc1cc(-c2ccncc2)c[nH]c1=O` [INAMRINONE], the Hepatotoxicity result was “HH: Evidence of human hepatotoxicity”.
As for CYANOCOBALAMIN, the Hepatotoxicity result is “NE: No evidence of hepatotoxicity in any species”.
`C[N+](C)(C)CC(=O)O.[Cl-]` [BETAINE HYDROCHLORIDE]: the Hepatotoxicity result was “NE: No evidence of hepatotoxicity in any species”.
As to `Cl.NC12CC3CC(CC(C3)C1)C2` [AMANTADINE HYDROCHLORIDE], the Hepatotoxicity result is “NE: No evidence of hepatotoxicity in any species”.
Turning to `C[C@H]1COc2c(N3CCN(C)CC3)c(F)cc3c(=O)c(C(=O)O)cn1c23.C[C@H]1COc2c(N3CCN(C)CC3)c(F)cc3c(=O)c(C(=O)O)cn1c23.O` [LEVOFLOXACIN], the Hepatotoxicity result is “WE: Weak evidence (<10 case reports) of human hepatotoxicity”.
The value for `O=C(O)/C=C\C(=O)O` [MALEIC ACID] was “AH: Evidence for animal hepatotoxicity but not tested in humans”; that for AUROTHIOGLUCOSE was “HH: Evidence of human hepatotoxicity”; that for `CC(C)(Sc1cc(C(C)(C)C)c(O)c(C(C)(C)C)c1)Sc1cc(C(C)(C)C)c(O)c(C(C)(C)C)c1` [PROBUCOL] was “NE: No evidence of hepatotoxicity in any species”.
Regarding `CO/N=C(/C(=O)N[C@@H]1C(=O)N2C(C(=O)[O-])=C(CSc3nc(=O)c(O)nn3C)CS[C@H]12)c1csc(N)n1.[Na+]`, the Hepatotoxicity entry is “HH: Evidence of human hepatotoxicity”.
As to `O=C(O)c1cc(-c2ccccc2)nc2ccccc12` [CINCHOPHEN], the Hepatotoxicity result is on record as “HH: Evidence of human hepatotoxicity”.
On to `C[C@H](CCC(=O)O)[C@H]1CC[C@H]2[C@@H]3CC[C@@H]4C[C@H](O)CC[C@]4(C)[C@H]3CC[C@]12C` [LITHOCHOLIC ACID], for which the Hepatotoxicity entry was “AH: Evidence for animal hepatotoxicity but not tested in humans”.
On to `COCC(=O)O[C@]1(CCN(C)CCCc2nc3ccccc3[nH]2)CCc2cc(F)ccc2[C@@H]1C(C)C` [MIBEFRADIL], for which the Hepatotoxicity result is listed as “NE: No evidence of hepatotoxicity in any species”.
The value for `CCCCCOC(=O)c1ccccc1C(=O)OCCCCC` was “AH: Evidence for animal hepatotoxicity but not tested in humans”.
The value for `CC(C)Cc1ccc(C(C)C(=O)O)cc1` (stereo unspecified) [IBUPROFEN] was “WE: Weak evidence (<10 case reports) of human hepatotoxicity”.

(Values after ChEMBL document CHEMBL1697692, “Developing structure-activity relationships for the prediction of hepatotoxicity” (Chem Res Toxicol, 2010).)
